Patent US9145376B2, “Quinazolinone inhibitors of dynein” (The Rockefeller University, priority 2011, dated 2015)

Legend:
Format in all cases: cell-based
[1] = system: primary cilia of Shh-EGFP cells; assay: Quantitative assessment of ciliogenesis (Arl13b staining, cilia size); conditions: 24 hours, read-out: Primary cilia size (percent of DMSO control at a 30 μM dose)
Description: Shh-EGFP cells [J. Hyman et al., Proc. Natl. Acad. Sci. U.S.A., (2009)], an NIH-3T3-based cell line containing a stably integrated Gli-responsive enhanced green fluorescent protein reporter, were maintained in DMEM containing 10% calf serum, 100 U/mL penicillin, and 0.1 mg/mL streptomycin. The cells were seeded into 24-well plates containing poly-D-lysine-coated 12-mm glass coverslips at a density of 30,000 cells/well and cultured for 36 hours. The cells were transferred into DMEM containing 0.5% calf serum, the antibiotics described above, and either individual compounds at a 30 μM concentration or 0.3% DMSO. After being cultured for another 24 hours, the cells were fixed in PBS containing 4% paraformaldehyde for 10 minutes at room temperature, washed 3×5 minutes with PBS, permeabilized with PBS containing 0.3% Triton X-100 for 5 minutes, and blocked overnight at 4° C. with PBS containing 5% normal goat serum, 0.1% Triton X-100, and 0.05% sodium azide. The coverslips were then incubated for 90 minutes at room temperature with blocking buffer containing rabbit polyclonal anti-Arl 13b antibody (1:3000 dilution), washed 4×5 minutes with PBS containing 0.1% Triton X-100, and incubated for 60 minutes with blocking buffer containing Alexa Fluor 488-conjugated goat polyclonal anti-rabbit IgG antibody (1:300 dilution; Invitrogen, A-11034). Following this secondary antibody incubation, nuclei were stained by incubating the cells 2×10 minutes with PBS containing 0.1% Triton X-100 and […] 4′,6-diamidino-2-phenylindole (DAPI) and washing them 2×5 minutes with PBS. The coverslips were subsequently mounted onto slides using Prolong Gold Antifade Reagent (Invitrogen) and imaged using an HC Plan Apochromat CS 20×/0.70 NA oil immersion objective on a Leica DMI6000B compound microscope equipped with a Photometric CoolSNAP HQ CCD camera and Metamorph software (Molecular Devices). Images of Arl13b staining in DMSO-treated cells were manually examined to establish a minimum threshold value for cilia staining intensity. ImageJ software was then used to define objects consisting of two or more adjacent pixels with a signal intensity equal to or greater than this threshold value, and the total object area within an individual image was used to estimate the total pixel area of primary cilia. Corresponding images of DAPI staining were processed in parallel using CellProfiler software to establish the number of nuclei per image. The average cilia size per cell within an individual image was then determined by dividing the total ciliary pixel area by the number of nuclei. Ten individual images, each containing approximately 150 cells. were used to quantify the average cilia size for each experimental condition.
Shh-EGFP cells, an NIH-3T3-based cell line containing a stably integrated Gli-responsive enhanced green fluorescent protein reporter, were maintained in DMEM containing 10% (v/v) calf serum, 100 U/mL penicillin, and 0.1 mg/mL streptomycin. The cells were seeded into 24-well plates containing poly-D-lysine-coated 12-mm glass coverslips at a density of 30,000 cells/well and cultured for 36 hours. The cells were transferred into DMEM containing 0.5% (v/v) calf serum, the antibiotics described above, and either individual dihydroquinazolinones at a 30 μM concentration or an equivalent amount of DMSO vehicle (0.3%, v/v). After being cultured for another 24 hours, the cells were fixed in PBS containing 4% (w/v) paraformaldehyde for 10 min at room temperature, washed 3×5 min with PBS, permeabilized with PBS containing 0.3% (v/v) Triton X-100 for 5 min, and blocked overnight at 4° C. with PBS containing 5% (v/v) normal goat serum, 0.1% (v/v) Triton X-100, and 0.05% (w/v) sodium azide. […]

[2] = system: ciliary Gli2 in Shh-EGFP cells; assay: Quantitative assessment of Hh ligand-dependent Gli2 trafficking; conditions: 30 μM, 4 hours; for basal Gli2 concentrations in the primary cilium: without Shh-N; for Basal and Shh-N-induced levels of ciliary Gli2: with or without 10% Shh-N-conditioned medium
Description: Shh-EGFP cells were seeded into 24-well plates containing poly-D-lysine-coated 12-mm glass coverslips at a density of 65,000 cells/well and cultured for 24 hours in DMEM containing 10% calf serum, 100 U/mL penicillin, and 0.1 mg/mL streptomycin. The cells were then transferred into DMEM containing 0.5% calf serum and the antibiotics described above for 16 hours to promote primary cilia formation. The cells were next transferred into DMEM containing 0.5% calf serum, antibiotics, and either individual compounds at a 30 μM concentration or 0.3% DMSO. Each compound or vehicle treatment was conducted in the presence or absence of 10% Shh-N-conditioned medium, and the cells were cultured under these conditions for 4 hours. The cells were subsequently fixed in PBS containing 4% paraformaldehyde for 10 minutes at room temperature, washed 3×5 minutes in PBS containing 50 mM glycine, permeabilized in PBS containing 0.3% Triton X-100 […], and then blocked overnight at 4° C. in PBS containing 5% normal donkey serum, 0.1% Triton X-100, and 0.05% sodium azide. After blocking was complete, the coverslips were incubated in blocking buffer containing rabbit polyclonal anti-Arl13b antibody (1:3000 dilution), goat polyclonal anti-Gli2 antibody (1:50 dilution; R & D Systems, AF3635), and mouse monoclonal anti-γ-tubulin (1:200 dilution; Sigma-Aldrich, T5326) for 90 minutes at room temperature. The cells were then washed 4×5 minutes with PBS containing 0.1% Triton X-100 and incubated in blocking buffer containing DyLight 488-conjugated donkey polyclonal anti-goat IgG antibody (3 μg/mL; Jackson ImmunoResearch, 705-485-147), DyLight 594-conjugated donkey polyclonal […] IgG antibody (3 μg/mL; Jackson ImmunoResearch, 715-515-151), and DyLight 649-conjugated donkey polyclonal […] IgG antibody (3 μg/mL; Jackson ImmunoResearch, 711-495-152) for 60 minutes. Following, this secondary antibody incubation, nuclei were stained by incubating the cells 2×10 minutes with PBS containing 0.1% Triton X-100 and 0.5 μg/mL DAPI and washing them 2×5 minutes with PBS. The coverslips were subsequently mounted onto slides using Prolong Gold Antifade Reagent (Invitrogen) and imaged using a Plan Apochromat 63×/1.4 NA oil immersion objective on a Zeiss Axio1mager Z1 upright microscope equipped with an LSM700 laser scanning confocal head. Ciliary Gli2 levels were quantified by determining total pixel intensity within a 0.69 μm-diameter circle at the distal tip of the axoneme and subtracting background fluorescence in an adjacent region of equivalent size. At least 25 cilia were analyzed to determine the average ciliary Gli2 level for each experimental condition.

[3] = system: primary cilia of Shh-EGFP cells; assay: Quantitative assessment of ciliogenesis (Arl13b staining, cilia size); conditions: 24 hours

Structure (SMILES)	activity at 30 µM [1]	basal Gli2 concentrations in the primary cilium [2]	cilia size in response to increasing concentration (FIG. 1) [3]	Basal and Shh-N-induced levels of ciliary Gli2 [2]
N#C/C(C(=O)c1ccc(Cl)cc1Cl)=C1\NC(=O)c2ccccc2N1 [Example 1, 3-(2,4-dichlorophenyl)-3-oxo-2-(4-oxo-3,4-dihydroquinazolin-2(1H)-ylidene)propanenitrile]	27%	increased basal Gli2 concentrations in this signaling organelle to levels comparable to that induced by Shh-N	dose-dependent decrease in cilia size	–
N#C/C(C(=O)c1ccc(Cl)cc1)=C1\NC(=O)c2ccccc2N1 [Example 2, 3-(4-chlorophenyl)-3-oxo-2-(4-oxo-3,4-dihydroquinazolin-2(1H)-ylidene)propanenitrile]	74%	–	–	unchanged
N#C/C(C(=O)c1ccccc1)=C1\NC(=O)c2ccccc2N1 [Example 16, 3-oxo-2-(4-oxo-3,4-dihydroquinazolin-2(1H)-ylidene)-3-phenylpropanenitrile]	95%	–	no decrease in cilia size	unchanged
N#C/C(C(=O)c1ccc(Cl)cc1Cl)=C1\NC(=O)c2ccc(Cl)cc2N1 [Example 31, 2-(7-chloro-4-oxo-3,4-dihydroquinazolin-2(1H)-ylidene)-3-(2,4-dichlorophenyl)-3-oxo-propanenitrile]	7%	increased basal Gli2 concentrations in this signaling organelle to levels comparable to that induced by Shh-N	–	–
